Laboratory results: patent US8829034B2, “Compounds which modulate the CB2 receptor” (Boehringer Ingerlheim International GmbH, priority 2006, dated 2014)
Where two headings read alike, the source gives them in different places.

Molecular target: T1, human CB2R (Homo sapiens, UniProt P34972)
T1 construct: host or cells: CHO cells
Test: CB2R mediated modulation of cAMP synthesis
Format: cell-based
Details: for agonistic activity: found through the use of the above described assays
Experimental: B. CB2R Mediated Modulation of cAMP Synthesis:
CHO cells expressing human CB2R (Euroscreen) were plated at a density of 5000 cells per well in 384 well plates and incubated overnight at 37° C. After removing the media, the cells were treated with test compounds diluted in stimulation buffer containing 1 mM IBMX, 0.25% BSA and 10 uM Forskolin. The assay was incubated for 30 minutes at 37° C. Cells were lysed and the cAMP concentration was measured using DiscoverX-XS cAMP kit, following the manufacturer's protocol. In this setting, agonists will decrease forskolin induced production of cAMP while inverse agonists will further increase forskolin induced production of cAMP. EC50 of agonists were calculated as follows. The maximal amount of cAMP produced by forskolin compared to the level of cAMP inhibited by 1 uM CP55940 is defined as 100%. The EC50 value of each test compound was determined as the concentration at which 50% of the forskolin-stimulated cAMP synthesis was inhibited. Data was analyzed using a four-parameter logistic model. (Model 205 of XLfit 4.0).

[1] = CHO cells expressing human CB2R, inhibition of forskolin-stimulated cAMP synthesis, compounds having agonist activity, read-out: CB2 EC50

T1 sequence (P34972 whole entry): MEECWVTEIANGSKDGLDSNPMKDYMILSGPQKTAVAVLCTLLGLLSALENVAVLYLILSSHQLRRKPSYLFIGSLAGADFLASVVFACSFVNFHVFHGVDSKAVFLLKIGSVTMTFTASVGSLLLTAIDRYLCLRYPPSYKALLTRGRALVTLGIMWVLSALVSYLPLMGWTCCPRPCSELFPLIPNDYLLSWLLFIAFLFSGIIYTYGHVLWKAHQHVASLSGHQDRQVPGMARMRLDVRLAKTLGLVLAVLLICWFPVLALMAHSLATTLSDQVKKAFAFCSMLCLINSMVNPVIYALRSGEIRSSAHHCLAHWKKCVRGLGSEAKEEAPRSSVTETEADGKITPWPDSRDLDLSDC

Structure (SMILES) | EC50 | agonistic activity | EC50 [1]
CC(C)(C)c1cc(NC(=O)C2(S(=O)(=O)CC3CCOCC3)CCC2)on1 [1-(Tetrahydro-pyran-4-ylmethanesulfonyl)-cyclobutanecarboxylic acid (3-tert-butyl-isoxazol-5-yl)-amide] | 6.2 nM | agonistic activity | –
CC(C)(C)c1csc(NC(=O)C2(S(=O)(=O)C3CCCCC3)CCC2)n1 [1-Cyclohexanesulfonyl-cyclobutanecarboxylic acid (4-tert-butyl-thiazol-2-yl)-amide] | 11.7 nM | agonistic activity | –
CC(C)(C)c1cc(NC(=O)C2(S(=O)(=O)C3CCCCC3)CCC2)no1 [1-Cyclohexanesulfonyl-cyclobutanecarboxylic acid (5-tert-butyl-isoxazol-3-yl)-amide] | 0.5 nM | agonistic activity | –
CC(=O)N1CCCC(CS(=O)(=O)C(C)(C)C(=O)Nc2cc(C(C)(C)C)on2)C1 (centres unmarked) [2-(1-Acetyl-piperidin-3-ylmethanesulfonyl)-N-(5-tert-butyl-isoxazol-3-yl)-2-methyl-propionamide] | – | agonistic activity | –
CC(C)(C)C(=O)CS(=O)(=O)C(C)(C)C(=O)Nc1ccc(C(F)(F)F)cn1 [2-(3,3-Dimethyl-2-oxo-butane-1-sulfonyl)-2-methyl-N-(5-trifluoromethyl-pyridin-2-yl)-propionamide] | 41.5 nM | agonistic activity | –
CCC(C)S(=O)(=O)C(C)(C)C(=O)Nc1ccc(C(F)(F)F)cn1 (centres unmarked) [2-(Butane-2-sulfonyl)-2-methyl-N-(5-trifluoromethyl-pyridin-2-yl)-propionamide] | – | agonistic activity | –
CCC(C)S(=O)(=O)C(C)(C)C(=O)Nc1cc(C(C)(C)C)no1 (centres unmarked) [2-(Butane-2-sulfonyl)-N-(3-tert-butyl-isoxazol-5-yl)-2-methyl-propionamide] | 3.3 nM | agonistic activity | –
CCC(C)S(=O)(=O)C(C)(C)C(=O)Nc1nc(C(C)(C)C)cs1 (centres unmarked) [2-(Butane-2-sulfonyl)-N-(4-tert-butyl-thiazol-2-yl)-2-methyl-propionamide] | – | agonistic activity | 14.4 nM
CCC(C)S(=O)(=O)C(C)(C)C(=O)Nc1cc(C(C)(C)C)nn1C (centres unmarked) [2-(Butane-2-sulfonyl)-N-(5-tert-butyl-2-methyl-2H-pyrazol-3-yl)-2-methyl-propionamide] | – | agonistic activity | –
CCC(C)S(=O)(=O)C(C)(C)C(=O)Nc1cc(C(C)(C)C)on1 (centres unmarked) [2-(Butane-2-sulfonyl)-N-(5-tert-butyl-isoxazol-3-yl)-2-methyl-propionamide] | – | agonistic activity | 18.7 nM
CC(C)(C(=O)Nc1ccc(C(F)(F)F)cn1)S(=O)(=O)CC1CCC1 [2-Cyclobutylmethanesulfonyl-2-methyl-N-(5-trifluoromethyl-pyridin-2-yl)-propionamide] | – | agonistic activity | –
CC(C)(C(=O)Nc1ccc(C(F)(F)F)cn1)S(=O)(=O)C1CCCCCC1 [2-Cycloheptanesulfonyl-2-methyl-N-(5-trifluoromethyl-pyridin-2-yl)-propionamide] | 7.1 nM | agonistic activity | –
CC(C)(C(=O)Nc1ccc(C(F)(F)F)cn1)S(=O)(=O)C1CCCCC1 [2-Cyclohexanesulfonyl-2-methyl-N-(5-trifluoromethyl-pyridin-2-yl)-propionamide] | 11.8 nM | agonistic activity | –
CC(C)(C(=O)Nc1ccc(C(F)(F)F)cn1)S(=O)(=O)CC1CCCCC1 [2-Cyclohexylmethanesulfonyl-2-methyl-N-(5-trifluoromethyl-pyridin-2-yl)-propionamide] | 15.4 nM | agonistic activity | –
Cn1nc(-c2ccccc2)cc1NC(=O)C(C)(C)S(=O)(=O)C1CCCC1 [2-Cyclopentanesulfonyl-2-methyl-N-(2-methyl-5-phenyl-2H-pyrazol-3-yl)-propionamide] | – | agonistic activity | –
CC(C)(C(=O)Nc1cc(C(F)(F)F)ccn1)S(=O)(=O)C1CCCC1 [2-Cyclopentanesulfonyl-2-methyl-N-(4-trifluoromethyl-pyridin-2-yl)-propionamide] | – | agonistic activity | –
CC(C)(C(=O)Nc1nc(C(F)(F)F)cs1)S(=O)(=O)C1CCCC1 [2-Cyclopentanesulfonyl-2-methyl-N-(4-trifluoromethyl-thiazol-2-yl)-propionamide] | – | agonistic activity | –
CC(C)(C(=O)Nc1nnc(-c2ccccc2)[nH]1)S(=O)(=O)C1CCCC1 [2-Cyclopentanesulfonyl-2-methyl-N-(5-phenyl-4H-1,2,4-triazol-3-yl)-propionamide] | 3.8 nM | agonistic activity | –
CC(C)(C(=O)Nc1ccc(C(F)(F)F)cn1)S(=O)(=O)C1CCCC1 [2-Cyclopentanesulfonyl-2-methyl-N-(5-trifluoromethyl-pyridin-2-yl)-propionamide] | – | agonistic activity | –

Structure (SMILES) | EC50 | agonistic activity | EC50 [1]
CC(C)(C(=O)Nc1ccc(C(F)(F)F)cn1)S(=O)(=O)CC1CC1 [2-Cyclopropylmethanesulfonyl-2-methyl-N-(5-trifluoromethyl-pyridin-2-yl)-propionamide] | – | agonistic activity | –
CC(C)(C)S(=O)(=O)C(C)(C)C(=O)Nc1cc(C(F)(F)F)ccn1 [2-Methyl-2-(2-methyl-propane-2-sulfonyl)-N-(4-trifluoromethyl-pyridin-2-yl)-propionamide] | – | agonistic activity | –
CC(C)(C)S(=O)(=O)C(C)(C)C(=O)Nc1cccc(C(F)(F)F)n1 [2-Methyl-2-(2-methyl-propane-2-sulfonyl)-N-(6-trifluoromethyl-pyridin-2-yl)-propionamide] | – | agonistic activity | –
CC(C)CCS(=O)(=O)C(C)(C)C(=O)Nc1ccc(C(F)(F)F)cn1 [2-Methyl-2-(3-methyl-butane-1-sulfonyl)-N-(5-trifluoromethyl-pyridin-2-yl)-propionamide] | 19.9 nM | agonistic activity | –
CC(C)(C(=O)Nc1ccc(C(F)(F)F)cn1)S(=O)(=O)CC1CCNCC1 [2-Methyl-2-(piperidin-4-ylmethanesulfonyl)-N-(5-trifluoromethyl-pyridin-2-yl)-propionamide] | – | agonistic activity | –
CCCS(=O)(=O)C(C)(C)C(=O)Nc1nc2c(s1)CCCC2 [2-Methyl-2-(propane-1-sulfonyl)-N-(4,5,6,7-tetrahydro-benzothiazol-2-yl)-propionamide] | – | agonistic activity | –
CCCS(=O)(=O)C(C)(C)C(=O)Nc1nc(-c2ccncc2)cs1 [2-Methyl-2-(propane-1-sulfonyl)-N-(4-pyridin-4-yl-thiazol-2-yl)-propionamide] | – | agonistic activity | –
CCCS(=O)(=O)C(C)(C)C(=O)Nc1cc(C(F)(F)F)ccn1 [2-Methyl-2-(propane-1-sulfonyl)-N-(4-trifluoromethyl-pyridin-2-yl)-propionamide] | – | agonistic activity | –
CCCS(=O)(=O)C(C)(C)C(=O)Nc1nc(C(F)(F)F)cs1 [2-Methyl-2-(propane-1-sulfonyl)-N-(4-trifluoromethyl-thiazol-2-yl)-propionamide] | – | agonistic activity | –
CCCS(=O)(=O)C(C)(C)C(=O)Nc1ccc(C(F)(F)F)cn1 [2-Methyl-2-(propane-1-sulfonyl)-N-(5-trifluoromethyl-pyridin-2-yl)-propionamide] | – | agonistic activity | –
CCCS(=O)(=O)C(C)(C)C(=O)Nc1ccc2ccccc2n1 [2-Methyl-2-(propane-1-sulfonyl)-N-quinolin-2-yl-propionamide] | – | agonistic activity | –
CCCS(=O)(=O)C(C)(C)C(=O)Nc1cnc2ccccc2c1 [2-Methyl-2-(propane-1-sulfonyl)-N-quinolin-3-yl-propionamide] | – | agonistic activity | –
CC(C)S(=O)(=O)C(C)(C)C(=O)Nc1nc2c(s1)CCCC2 [2-Methyl-2-(propane-2-sulfonyl)-N-(4,5,6,7-tetrahydro-benzothiazol-2-yl)-propionamide] | – | agonistic activity | –
CC(C)S(=O)(=O)C(C)(C)C(=O)Nc1nc(-c2ccccn2)cs1 [2-Methyl-2-(propane-2-sulfonyl)-N-(4-pyridin-2-yl-thiazol-2-yl)-propionamide] | – | agonistic activity | –
CC(C)S(=O)(=O)C(C)(C)C(=O)Nc1nc(-c2cccnc2)cs1 [2-Methyl-2-(propane-2-sulfonyl)-N-(4-pyridin-3-yl-thiazol-2-yl)-propionamide] | – | agonistic activity | –
CC(C)S(=O)(=O)C(C)(C)C(=O)Nc1nc(-c2ccncc2)cs1 [2-Methyl-2-(propane-2-sulfonyl)-N-(4-pyridin-4-yl-thiazol-2-yl)-propionamide] | – | agonistic activity | –
CC(C)S(=O)(=O)C(C)(C)C(=O)Nc1cccc(C(F)(F)F)n1 [2-Methyl-2-(propane-2-sulfonyl)-N-(6-trifluoromethyl-pyridin-2-yl)-propionamide] | – | agonistic activity | –
CC(C)S(=O)(=O)C(C)(C)C(=O)Nc1ccc2ccccc2n1 [2-Methyl-2-(propane-2-sulfonyl)-N-quinolin-2-yl-propionamide] | – | agonistic activity | –
CC(C)S(=O)(=O)C(C)(C)C(=O)Nc1cnc2ccccc2c1 [2-Methyl-2-(propane-2-sulfonyl)-N-quinolin-3-yl-propionamide] | – | agonistic activity | –
